The record followed here is US9783510B2, “Small molecule mediated transcriptional induction of E-cadherin” (Vanderbilt University, priority 2014, dated 2017).

The subject of this test is E-cadherin expression in SW620 cells. Nature of the test: E-cadherin expression, in-cell Western (ICW), SW620 cells. Format: cell-based. As to conditions: for fold induction at 10 µM / EC50: Homo sapiens; for fold induction at 10 µM: SW-620, 24 h; for EC50: SW-620, inducement of E-cadherin expression in SW620 cells. The procedure: SW620 and H520 cells (5×10^4/100 μL) were seeded in a 96-well plate prior to treatment. Cells were treated with 10 μM concentration of synthesized compound in quadruplicate for 24 hours in RPMI 1640 supplemented medium and 100 μg/mL penicillin-streptomycin. The cells were then fixed with 100% methanol for 20 minutes at 4° C. The wells were then washed 2 times with PBS, permeabilized in 2% bovine serum albumin (BSA) and 0.2% TritonX-100 in PBS for 30 minutes at room temperature with gentle agitation, and blocked in LI-COR blocking buffer for 30 minutes at room temperature with gentle agitation. The cells were then incubated with the following primary antibodies: anti-E-Cadherin (1:500) and anti-α-Tubulin (1:1000) diluted in blocking buffer (1:1 dilution in PBS) for 2 hours at room temperature with gentle agitation. The cells were washed 4 times in PBS-T for 5 minutes each, and then incubated with the following secondary antibodies conjugated to a fluorescent entity: IRDye 800-conjugated goat anti-rabbit IgG (1:1000) and IRDye-700-conjugated goat anti-mouse IgG (1:2000) in blocking buffer (1:1 dilution in PBS) with gentle agitation for 1 h at room temperature. The cells were washed 4 times in PBS-T for 5 minutes each followed by a single wash with PBS. All liquid was removed from the wells and the plates were visualized and analyzed on the Odyssey IR imaging system (LI-COR Biosciences).
The assay was further optimized in the following manner. The cells were washed 2 times with PBS, fixed in 100% methanol at room temperature for 15 minutes, and again washed 2 times with PBS. The cells were then incubated with the following primary antibodies: anti-E-Cadherin (1:200) and anti-α-Tubulin (1:2000) diluted in ice cold 2% bovine serum albumin (BSA) and 0.2% TritonX-100 in PBS for 1 hour at room temperature with gentle agitation. The cells were washed 2 times in PBS and then incubated with the following secondary antibodies conjugated to a fluorescent entity: Licor 800-conjugated goat anti-rabbit IgG (1:2000) and IRDye-700-conjugated goat anti-mouse IgG (1:2000) in ice cold 2% BSA and 0.2% TritonX-100 in PBS with gentle agitation for 45 minutes at room temperature. The wells were washed 2 times in PBS, dried, and analyzed as previously mentioned.
N-Acetamidoalkyl-5-arylisoxazole-3-carboxamide analogs were synthesized as described above. Changes in expression level of E-cadherin in response to 10 μM compound in SW620 cells was determined in a cell-based functional assay as described above, and the data are shown in Table III. The compound number corresponds to the compound numbers used in Table II.
EC50 of inducement of E-cadherin expression in SW620 cells was determined in a cell-based functional assay as described above, and the data are shown in Table V. The compound number corresponds to the compound numbers used in Table IV.

Setting [1] is: change in expression level of E-cadherin in response to 10 μM compound, 24 hours, SW620 cells.

Broadly, the fold induction is the ratio of treated to control signal. For `O=C(NCCCNC(=O)c1nc2ncccn2n1)c1cc(-c2cccs2)on1` [Compound 108, N-(3-([1,2,4]triazolo[1,5-a]pyrimidine-2-carboxamido)propyl)-5-(thiophen-2-yl)isoxazole-3-carboxamide], the fold induction at 10 µM under setting [1] was found to be 2.45.

In the case of `Nc1ccc(C(=O)NCCCNC(=O)c2cc(-c3ccccc3)on2)cn1` [Compound 90, N-(3-(6-aminonicotinamido)propyl)-5-phenylisoxazole-3-carboxamide], the “fold change SW620 ICW” value under setting [1] is 2.50 fold.

In the case of `O=C(NCCCNC(=O)c1cc(-c2ccccc2)on1)c1ccncc1` [Compound 31, N-(3-(isonicotinamido)propyl)-5-phenylisoxazole-3-carboxamide], the fold induction at 10 µM under setting [1] worked out at 3.51.

As to `O=C(NCCCNC(=O)c1cc(-c2cccs2)on1)c1cc(-c2ccccc2)ccn1` [Compound 106, N-(3-(4-phenylpicolinamido)propyl)-5-(thiophen-2-yl)isoxazole-3-carboxamide], the fold induction at 10 µM under setting [1] stood at 3.69.

With `O=C(NCCCNC(=O)c1cc(-c2cccs2)on1)c1ccc(O)nc1` [Compound 49, N-(3-(6-hydroxynicotinamido)propyl)-5-(thiophen-2-yl)isoxazole-3-carboxamide], the fold induction at 10 µM under setting [1] came out at 1.71.

In the case of `O=C(NCCCNC(=O)c1cc(-c2ccccc2)on1)c1cccnc1` [Compound 56, N-(3-(nicotinamido)propyl)-5-phenylisoxazole-3-carboxamide], the fold induction at 10 µM under setting [1] is 3.43.

`Cc1noc(C(=O)NCCCNC(=O)c2cc(-c3cccs3)on2)n1` [Compound 78, 3-methyl-N-(3-(5-(thiophen-2-yl)isoxazole-3-carboxamido)propyl)-1,2,4-oxadiazole-5-carboxamide]: the fold induction at 10 µM under setting [1] was determined as 1.97.

The term EC50 denotes the concentration needed to bring the measured effect to its halfway point. A high value points to weaker potency. Take `Cc1ccc(C(=O)NCCCNC(=O)c2cc(-c3ccccc3)on2)c(O)n1` [Compound 63, N-(3-(2-hydroxy-6-methylnicotinamido)propyl)-5-phenylisoxazole-3-carboxamide]: the EC50 came out at 5.64 µM. Further, the fold induction at 10 µM under setting [1] came to 4.59.

As for `Cc1ncccc1C(=O)NCCCNC(=O)c1cc(-c2ccccc2)on1` [Compound 65, N-(3-(2-methylnicotinamido)propyl)-5-phenylisoxazole-3-carboxamide], the fold induction at 10 µM under setting [1] turned out to be 2.05.

As for `O=C(NCCCNC(=O)c1ccc(C(F)(F)F)o1)c1cc(-c2ccccc2)on1` [Compound 89, 5-phenyl-N-(3-(5-(trifluoromethyl)furan-2-carboxamido)propyl)isoxazole-3-carboxamide], the fold induction at 10 µM under setting [1] is 2.13.

For the compound `Cn1ccc(C(=O)NCCCNC(=O)c2cc(-c3ccccc3)on2)n1` [Compound 28, N-(3-(1-methyl-1H-pyrazole-3-carboxamido)propyl)-5-phenylisoxazole-3-carboxamide], under setting [1], the fold induction at 10 µM amounted to 3.42.

In the case of `O=C(NCCCNC(=O)c1cccc(Cl)n1)c1cc(-c2ccccc2)on1` [Compound 92, N-(3-(6-chloropicolinamido)propyl)-5-phenylisoxazole-3-carboxamide], under setting [1], the fold induction at 10 µM turned out to be 3.13.

As for `Cc1ccnc(O)c1C(=O)NCCCNC(=O)c1cc(-c2ccccc2)on1` [Compound 69, N-(3-(2-hydroxy-4-methylnicotinamido)propyl)-5-phenylisoxazole-3-carboxamide], under setting [1], the fold induction at 10 µM amounted to 2.

As for `Cc1cccnc1C(=O)NCCCNC(=O)c1cc(-c2cccs2)on1` [Compound 55, N-(3-(3-methylpicolinamido)propyl)-5-(thiophen-2-yl)isoxazole-3-carboxamide], the fold induction at 10 µM under setting [1] was determined as 2.98.

As for `O=C(NCCCNC(=O)c1ccno1)c1cc(-c2cccs2)on1` [Compound 102, N-(3-(isoxazole-5-carboxamido)propyl)-5-(thiophen-2-yl)isoxazole-3-carboxamide], under setting [1], the fold induction at 10 µM was determined as 2.87.

For `O=C(NCCCNC(=O)c1cccc(C(F)(F)F)n1)c1cc(-c2ccccc2)on1` [Compound 120, 5-phenyl-N-(3-(6-(trifluoromethyl)picolinamido)propyl)isoxazole-3-carboxamide], the fold induction at 10 µM under setting [1] stood at 3.08.

In turn, `O=C(Cc1c[nH]c2ccccc12)NCCCNC(=O)c1cc(-c2ccccc2)on1` [Compound 95, N-(3-(2-(1H-indol-3-yl)acetamido)propyl)-5-phenylisoxazole-3-carboxamide] registered an EC50 of 2.57 µM. For the same compound, the fold induction at 10 µM under setting [1] was 4.2.

`Cn1cnc(C(=O)NCCCNC(=O)c2cc(-c3cccs3)on2)c1` [Compound 103, N-(3-(1-methyl-1H-imidazole-4-carboxamido)propyl)-5-(thiophen-2-yl)isoxazole-3-carboxamide]: under setting [1], the fold induction at 10 µM worked out at 3.02.

Consider `O=C(NCCCNC(=O)c1cccc(C(F)(F)F)n1)c1cc(-c2cccs2)on1` [Compound 107, 5-(thiophen-2-yl)-N-(3-(6-(trifluoromethyl)picolinamido)propyl)isoxazole-3-carboxamide], for which the response was half-maximal at 6.95 µM (EC50). The fold induction at 10 µM under setting [1] was 4.15.

On to `O=C(NCCCNC(=O)c1occc1-c1ccccc1)c1cc(-c2cccs2)on1` [Compound 100, N-(3-(3-phenylfuran-2-carboxamido)propyl)-5-(thiophen-2-yl)isoxazole-3-carboxamide], for which the fold induction at 10 µM under setting [1] stood at 2.37.

As to `O=C(NCCCNC(=O)c1cc(-c2ccccc2)on1)c1ccc(O)c(O)c1` [Compound 36, N-(3-(3,4-dihydroxybenzamido)propyl)-5-phenylisoxazole-3-carboxamide], the fold induction at 10 µM under setting [1] was 2.69.

Regarding `O=C(NCCCNC(=O)c1ccc(Cl)o1)c1cc(-c2cccs2)on1` [Compound 99, N-(3-(5-chlorofuran-2-carboxamido)propyl)-5-(thiophen-2-yl)isoxazole-3-carboxamide], the fold induction at 10 µM under setting [1] amounted to 3.66.

For `O=C(NCCCNC(=O)c1cnn[nH]1)c1cc(-c2ccccc2)on1` [Compound 117, N-(3-(1H-1,2,3-triazole-5-carboxamido)propyl)-5-phenylisoxazole-3-carboxamide], the fold induction at 10 µM under setting [1] is 3.71.

In the case of `O=C(CCCC[C@@H]1SC[C@@H]2NC(=O)N[C@@H]21)NCCCNC(=O)c1cc(-c2ccccc2)on1` (stereo in doubt) [Compound 19, N-(3-(5-((3aS,4S,6aR)-2-oxohexahydro-1H-thieno[3,4-d]imidazol-4-yl)pentanamido)propyl)-5-phenylisoxazole-3-carboxamide], the fold induction at 10 µM under setting [1] was found to be 1.25.

For the compound `O=C(NCCCNC(=O)c1ccc2ccccc2n1)c1cc(-c2cccs2)on1` [Compound 72, N-(3-(quinoline-2-carboxamido)propyl)-5-(thiophen-2-yl)isoxazole-3-carboxamide], under setting [1], the fold induction at 10 µM is 3.13.

For `O=C(NCCCNC(=O)c1cncnc1O)c1cc(-c2cccs2)on1` [Compound 42, N-(3-(4-hydroxypyrimidine-5-carboxamido)propyl)-5-(thiophen-2-yl)isoxazole-3-carboxamide], under setting [1], the fold induction at 10 µM is 0.95.

`N#Cc1ccnc(C(=O)NCCCNC(=O)c2cc(-c3cccs3)on2)c1` [Compound 82, N-(3-(4-cyanopicolinamido)propyl)-5-(thiophen-2-yl)isoxazole-3-carboxamide]: the fold induction at 10 µM under setting [1] amounted to 2.8.

As to `O=C(NCCCNC(=O)c1cc(-c2ccccc2)on1)c1cscn1` [Compound 33, 5-phenyl-N-(3-(thiazole-4-carboxamido)propyl)isoxazole-3-carboxamide], the fold induction at 10 µM under setting [1] was 3.7.

Take `N[C@@H](Cc1ccccc1)C(=O)NCCNC(=O)c1cc(-c2ccccc2)on1` [Compound 23, (S)—N-(2-(2-amino-3-phenylpropanamido)ethyl)-5-phenylisoxazole-3-carboxamide]: the fold induction at 10 µM under setting [1] came out at 0.84.

With `O=C(NCCCNC(=O)c1nccs1)c1cc(-c2ccccc2)on1` [Compound 35, 5-phenyl-N-(3-(thiazole-2-carboxamido)propyl)isoxazole-3-carboxamide], under setting [1], the fold induction at 10 µM amounted to 2.61.

With `Cc1ccc(C(=O)NCCCNC(=O)c2cc(-c3cccs3)on2)c(O)n1` [Compound 46, N-(3-(2-hydroxy-6-methylnicotinamido)propyl)-5-(thiophen-2-yl)isoxazole-3-carboxamide], under setting [1], the fold induction at 10 µM was found to be 3.48.
